Our source for the IC50, Activity and Ratio IC50 values is ChEMBL document CHEMBL2440079, “Synthesis and in vitro evaluation of a novel radioligand for αvβ3 integrin receptor imaging: [18F]FPPA-c(RGDfK)” (Bioorg Med Chem Lett, 2013).

pIC50: −log10 of the molar value. Calls of active or inactive are those of the source. The calls are words filed in the database; no cut-off is given here.

One assay deals with Integrin alpha-5/beta-1 (Homo sapiens, UniProt P05556+P08648). The assay is described as follows: Binding affinity to soluble truncated human recombinant 6His-tagged alpha5beta1 and integrins were expressed in HEK293T cells after 2 hrs by competition ELISA-like assay. Format: cell-based, HEK-293T.
In assay [1] the target is T1, Integrin alpha-V/beta-3 (Homo sapiens, UniProt P05106+P06756). The experiment in a line: Binding affinity to soluble truncated human recombinant Fc-tagged alphaVbeta3 and integrins were expressed in HEK293T cells after 2 hrs by competition ELISA-like assay. Format: cell-based, HEK-293T. A general note: In an ELISA, binding on a coated surface is turned into a signal by an enzyme label.

Assay [2] deals with T1, Integrin alpha-V/beta-3. The experiment in a line: Activation of alphaVbeta3 integrin in HUVEC at 10 uM by flow cytometry. Format: protein-complex assay. In general terms: In flow cytometry, cells or beads pass a laser one at a time.
In another assay the test system is HEK-293T. The assay is described as follows: Selectivity ratio of IC50 for soluble truncated human recombinant 6His-tagged alpha5beta1 and integrins were expressed in HEK293T cells to IC50 for soluble truncated human recombinant Fc-tagged alphaVbeta3 and integrins. Format: cell-based.

For the compound `NC(N)=NCCC[C@@H]1NC(=O)[C@H](CCCCn2cc(CCC(=O)Nc3ccc(F)cc3)nn2)NC(=O)[C@@H](Cc2ccccc2)NC(=O)[C@H](CC(=O)O)NC(=O)CNC1=O`, the results for the negative-log IC50 (pIC50) at Integrin alpha-5/beta-1 and on Integrin alpha-V/beta-3 [1] were 5.44 and 7.97, respectively.

On to `N=C(N)NCCC[C@@H]1NC(=O)[C@H](CCCCn2cc(CCC(=O)Nc3ccc(F)cc3)nn2)NC(=O)[C@@H](Cc2ccccc2)NC(=O)[C@H](CC(=O)O)NC(=O)CNC1=O`, for which the outcome at Integrin alpha-V/beta-3 [2] was Active. Moreover, the Ratio IC50 in the assay on HEK-293T was 300.

The term pIC50 denotes the IC50 on a negative log10 scale, so that one unit is a factor of ten.
